Experiment [1] concerns three Gram negative and three Gram positive strains of human gut bacteria. Description: BSH inhibition in growing cultures of six gut bacterial strains (overall statements). The format is cell-based. To be noted: 100 μM inhibitor, 100 μM conjugated bile acid mixture.
For experiment [2], the target named is T1, B. theta BSH (Bacteroides thetaiotaomicron, UniProt Q8A600). Description: Inhibitor screen using rBSH, B. theta BSH (UPLC-MS % deconjugation). To be noted: 100 μM inhibitor, 30 min preincubation, monitored over 21 hours.
A further experiment addresses T2, B. longum BSH (Bifidobacterium longum, UniProt Q9KK62).
T2 sequence (Q9KK62 1-317): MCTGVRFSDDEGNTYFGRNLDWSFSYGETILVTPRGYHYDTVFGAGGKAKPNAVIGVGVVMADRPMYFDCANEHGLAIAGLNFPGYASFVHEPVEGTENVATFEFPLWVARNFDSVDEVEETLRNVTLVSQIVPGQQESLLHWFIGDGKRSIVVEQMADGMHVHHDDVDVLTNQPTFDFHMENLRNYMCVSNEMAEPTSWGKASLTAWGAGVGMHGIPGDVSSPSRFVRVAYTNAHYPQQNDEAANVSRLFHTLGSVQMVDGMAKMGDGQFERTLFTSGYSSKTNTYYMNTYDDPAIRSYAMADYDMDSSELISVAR
In words: Enzyme kinetics (ninhydrin assay), B. longum BSH. To be noted: substrate of B. longum BSH. The procedure:
(§1) Enzyme Kinetics. […] This solution was preheated to 37° C. in a water bath. 20 μL of a conjugated bile acid in DMSO at appropriate concentration was preheated to 37° C. in a water bath and added to the above solution. […] The cloudy solution was centrifuged at 4,200 g for 15 mins. 10 μL of the supernatant was added to 190 μL of ninhydrin mix (15 mL of 1% [wt/vol] ninhydrin in 0.5 M sodium citrate at pH 5.5, 36 mL glycerol and 6 mL 0.5 M sodium citrate buffer at pH 5.5) and the mixture was heated to 100° C. in a BioRad thermocycler for 18 mins. The obtained solution was cooled at 4° C. for 20 mins and absorbance was measured at 570 nm using a spectrophotometer (Molecular Devices).

In experiment [3] the target is T1, B. theta BSH. In words: Enzyme kinetics (ninhydrin assay), B. theta BSH. The format is biochemical. The settings on record: for deconjugation of substrate by purified B. theta BSH (in words): ninhydrin-based assay. How it is done:
as §1

The mark [4] stands for this setting: Table 1, substrate of B. Theta BSH, PBS pH 7.5, 37° C.
Setting [5] is: Table 3, substrate of B. theta BSH, mean ± SEM, n = 3.

Structures are written as SMILES.

As usually defined, the Km is the concentration of substrate that gives half-maximal velocity.

Take `Cc1cc2nc3c(=O)[nH]c(=O)nc-3n(C[C@H](O)[C@H](O)[C@H](O)CO)c2cc1C` [Riboflavin, riboflavin, reference compound]: the “deconjugation / BSH inhibition in cultures of the six bacterial strains (in words)” value in experiment [1] is “neither riboflavin nor CAPE displayed significant inhibitory activity against any of the Gram negative strains”. The “inhibition of B. theta BSH (in words)” value on B. theta BSH [2] was “did not display any inhibitory activity”.
On to `C[C@H](CCC(=O)NCCS(=O)(=O)O)[C@H]1CC[C@H]2[C@@H]3[C@H](O)C[C@@H]4C[C@H](O)CC[C@]4(C)[C@H]3C[C@H](O)[C@]12C` [TCA, taurocholic acid], for which the Kcat at B. longum BSH (Table 1, PBS pH 7.5, 37° C.) was found to be 1.82 s⁻¹. Moreover, the “deconjugation of substrate by purified B. theta BSH (in words)” value (“deconjugation of substrate” for short) at B. theta BSH [3] is “did not deconjugate”.
For `C[C@H](CCC(=O)NCCS(=O)(=O)O)[C@H]1CC[C@H]2[C@@H]3[C@H](O)C[C@@H]4C[C@H](O)CC[C@]4(C)[C@H]3CC[C@]12C` [TCDCA, taurochenodeoxycholic acid], the Kcat was 1.807 s⁻¹ at B. longum BSH (Table 1, PBS pH 7.5, 37° C.); 0.0767 ± 0.01 s⁻¹ at B. longum BSH (Table 3, mean ± SEM, n = 3); 1.69 s⁻¹ at B. theta BSH [3] (setting [4]); 0.0717 ± 0.01 s⁻¹ at B. theta BSH [3] (setting [5]). Also, the Km on B. longum BSH (Table 1, PBS pH 7.5, 37° C.) stood at 7.75 mM; at B. longum BSH (Table 3, mean ± SEM, n = 3), 7 ± 2.3 mM; on B. theta BSH [3] (setting [4]), 2.86 mM; at B. theta BSH [3] (setting [5]), 2.9 ± 1.8 mM.
On to `C[C@H](CCC(=O)NCCS(=O)(=O)O)[C@H]1CC[C@H]2[C@@H]3CC[C@@H]4C[C@H](O)CC[C@]4(C)[C@H]3C[C@H](O)[C@]12C` [TDCA, taurodeoxycholic acid], for which the Kcat on B. longum BSH (Table 1, PBS pH 7.5, 37° C.) was 1.695 s⁻¹; on B. longum BSH (Table 3, mean ± SEM, n = 3), 0.0583 ± 0.0017 s⁻¹; on B. theta BSH [3] (setting [4]) it was 1.682 s⁻¹; on B. theta BSH [3] (setting [5]) it was 0.215 ± 0.01 s⁻¹. For the same molecule, the Km at B. theta BSH [3] (setting [4]) stood at 3.35 mM; on B. theta BSH [3] (setting [5]) it was 3.4 ± 0.6 mM. In addition, at B. theta BSH [3], the “deconjugation of substrate” value was “preference for TDCA deconjugation”.
On to `C[C@H](CCC(=O)NCCS(=O)(=O)O)[C@H]1CC[C@H]2[C@@H]3[C@@H](O)C[C@@H]4C[C@H](O)CC[C@]4(C)[C@H]3CC[C@]12C` [TUDCA, tauroursodeoxycholic acid], for which the Kcat at B. longum BSH (Table 1, PBS pH 7.5, 37° C.) was 1.608 s⁻¹; on B. longum BSH (Table 3, mean ± SEM, n = 3) it was 0.015 ± 0.0033 s⁻¹; at B. theta BSH [3] (setting [4]) it was 1.807 s⁻¹; on B. theta BSH [3] (setting [5]), 0.255 ± 0.013 s⁻¹. For the same molecule, the Km at B. theta BSH [3] (setting [4]) was found to be 8.23 mM; at B. theta BSH [3] (setting [5]), 8.2 ± 1 mM. Moreover, the “deconjugation of substrate” value at B. theta BSH [3] is on record as “displayed a preference”.

(Values after patent US12577273B2, “Small molecule modulators of gut bacterial bile acid metabolism” (priority 2019, dated 2026).)
